According to patent US11827543B2, “Method for continuous supply of superoxide-containing peracetate oxidant solution” (Clean Chemistry, Inc., priority 2014, dated 2023):

Legend:
[1] = Half life and attenuation of oxidant solution in clean water; type: physicochemical
Description: Measurement of Sodium Peracetate Concentration: Measurement of sodium peracetate concentration is conducted by using a peroxide iodometric titration procedure from HACH. A known, volumetric aliquot of the peracetate-containing solution is diluted with a volume of distilled water where the total volume is convenient for titration between about 5 and 25 mL in a small glass beaker or flask. The diluted peracetate solution is stirred and 1 mL of ammonium molybdate reagent (HACH reagent 1933-32) is added. Sulfuric acid in the reagent converts the peracetate to peracetic acid. The contents of one Sulfite 1 Reagent packet (HACH reagent 2203-99) is added to the prepared solution and stirred for 5 minutes. The purple color that develops is titrated to a colorless endpoint with a standard sodium thiosulfate solution (for example, 0.0250 N sodium thiosulfate solution). The peroxide concentration is calculated based on the volume of the aliquot of peracetate-containing solution, the volume and concentration of sodium thiosulfate solution, two electron equivalents consumed for each molecule of peroxide and the molecular weight of the peroxide being measured.
Example 8: Half Life and Attenuation of Oxidant Solution: The minimum attenuation rate or degradation rate of the sodium peracetate oxidant solution was measured experimentally in clean water conditions. A sodium peracetate oxidant solution containing an initial concentration of 7.5% (wt/vol) sodium peracetate with an initial pH of about 10.1 was prepared by dissolving 0.34 g of sodium hydroxide (98%) in 10.0 mL of 2.85% wt/vol hydrogen peroxide (topical solution) in a 50 mL beaker. Then 1.22 g of triacetin (99%) was combined and the mixture rapidly stirred for 1-2 minutes at room temperature. […]
The sodium peracetate concentration was measured over time using the method described in Example 4. Concentrations were accurate to about ±2.4% of the values measured. The pH was measured using a high sodium electrode (Oakton model 35805-05) with three point calibration and automatic temperature correction.

[2] = system: acid producing bacteria (APB); test: Acid producing bacteria serial dilution culture (Intertek APB media); type: cell-based; details: produced water, Example 17, 30 min contact, no grow back
Description: The water's color rapidly turned orange and the ORP increased to about 700 mV vs SHE. During the first 5 to 10 minutes of slow mixing there was some floc formation. After 20 minutes stirring was ceased and the flocculated solids were allowed to settle, however the water remained hazy orange. […] The ATP concentration was reduced by about 93% from the untreated water concentration and the bioassay results indicated at least 4 log reductions in acid producing and sulfate reducing bacteria relative to the untreated water's ATP concentration (approximately 1.8×10^6 microbial equivalents per mL).
Water parameters were measured by a variety of methods. The pH was measured using a high sodium electrode (Oakton model 35805-05) with three point calibration and automatic temperature correction. The ORP (oxidative-reductive potential) of solutions was measured using an Oakton model 35805-15 ORP probe calibrated to the standard hydrogen electrode (SHE) using Thermo/Orion ORP standard 967901. Sodium ion concentration was measured using a Cole-Parmer ion selective electrode, EW-27504-30, with two point calibration of a sodium standard solution of NaCl. Chloride ion concentration was measured using a Cole-Parmer ion selective electrode, SC-27504-08, with two point calibration of a chloride standard solution of NaCl. All measurements using HACH methods were measured using a HACH DR900 colorimeter. Calcium, magnesium and total hardness concentrations were measured using HACH method 8030. Sulfate concentration was measured using HACH method 10248. Aluminum concentration was measured using HACH method 8012. Iron concentration was measured using HACH method 10249 modified with a longer reaction time to minimize interferences from organic impurities. Total suspended solids (TSS) concentration was measured using HACH method 8006 modified for smaller volumes. Turbidity was measured using HACH method 8237. […] Acid producing bacteria (ABP) and sulfate reducing bacteria (SRB) cell culture concentrations were measured with standard 1 mL serial dilutions using Intertek APB and SRB culture media, 1% salinity.

pH of treated water = type: physicochemical
Description: Water parameters were measured by a variety of methods. The pH was measured using a high sodium electrode (Oakton model 35805-05) with three point calibration and automatic temperature correction. The ORP (oxidative-reductive potential) of solutions was measured using an Oakton model 35805-15 ORP probe calibrated to the standard hydrogen electrode (SHE) using Thermo/Orion ORP standard 967901. Sodium ion concentration was measured using a Cole-Parmer ion selective electrode, EW-27504-30, with two point calibration of a sodium standard solution of NaCl. Chloride ion concentration was measured using a Cole-Parmer ion selective electrode, SC-27504-08, with two point calibration of a chloride standard solution of NaCl. All measurements using HACH methods were measured using a HACH DR900 colorimeter. Calcium, magnesium and total hardness concentrations were measured using HACH method 8030. Sulfate concentration was measured using HACH method 10248. Aluminum concentration was measured using HACH method 8012. Iron concentration was measured using HACH method 10249 modified with a longer reaction time to minimize interferences from organic impurities. Total suspended solids (TSS) concentration was measured using HACH method 8006 modified for smaller volumes. Turbidity was measured using HACH method 8237. ATP (adenosine triphosphate) concentration was measured using the LuminUltra 2nd Generation metabolic ATP measurement technology with the LuminUltra Quench Gone-Organic Modified sampling method, a PhotonMaster Luminometer and LumiCalc software. Acid producing bacteria (ABP) and sulfate reducing bacteria (SRB) cell culture concentrations were measured with standard 1 mL serial dilutions using Intertek APB and SRB culture media, 1% salinity.

[3] = Jar test water parameters (hardness, calcium, magnesium, chloride, sodium, aluminum, iron, TSS, turbidity); details: produced water, Example 17; for Magnesium (mg/L as CaCO3): untreated 170; for Calcium (mg/L as CaCO3): untreated 1080; for Hardness (mg/L as CaCO3): untreated 1250
Description: The water sample was thoroughly mixed and 500 mL dispensed into 1 L beakers to conduct tests using a Phipps and Bird programmable jar tester. The jar tester was programmed for a rapid mix of high shear force at 295 rpm impeller speed for 1.25 minutes, followed by a low shear impeller speed of 25 rpm for 10 minutes to promote coalescence and floc formation. All tests were conducted at room temperature, 20-25° C. The 500 mL water samples were dosed with varying amounts of sodium peracetate oxidant solution during the rapid mix from an oxidant solution that was 2.1% wt/vol sodium peracetate (1.6% wt/vol measured as PAA). Also during the rapid mix the jar samples were dosed with 0.5 to 1 mg/L of an anionic polymer dispersion as a coalescence and floc aid.
Example 17: Oxidative clarification of suspended solids and metals. A produced water sample originating from the Denver-Julesburg basin formation in CO, USA contained suspended and dissolved solids, bacteria and up to about 2% salinity. The water sample was thoroughly mixed and 500 mL dispensed into 1 L beakers to conduct tests using a Phipps and Bird programmable jar tester. The jar tester was programmed for a rapid mix of high shear force at 295 rpm impeller speed for 1.25 minutes followed by a low shear impeller speed of 25 rpm for 20 minutes to promote floc formation and allow for pH and ORP monitoring prior to settling of solids. All tests were conducted at room temperature, 18-21° C. The 500 mL water samples were dosed with varying amounts of sodium peracetate oxidant solution during the rapid mix from an oxidant solution that was 2.2% wt/vol sodium peracetate (1.7% wt/vol measured as PAA). In some cases, during the rapid mix the jar samples were dosed with up to 5 mg/L of an anionic polymer dispersion as a floc aid.

bacteria = test: ATP concentration (LuminUltra metabolic ATP measurement) in oxidant-treated water; type: cell-based
[4] = system: sulfate reducing bacteria (SRB); test: Sulfate reducing bacteria serial dilution culture (Intertek SRB media); type: cell-based; details: produced water, Example 17, 30 min contact, no grow back
[5] = 29 mg/L, untreated >>10,000 cells/mL
[6] = produced water, Example 17, 52 mg/L
[7] = produced water, Example 18, 0.30 mmol/L oxidant

CC(=O)O[O-].[Na+] [sodium peracetate oxidant, sodium peracetate]
half-life ([1]; 7.5% (wt/vol) solution, 25 °C, clean water, initial pH 10.1): 1.33 to 1.42 h | final pH of solution ([1]; 7.5% solution, 25 °C, at 265 min, initial pH 10.1): 7.3 | concentration of oxidant ([1]; within about 6 days' time): less than 5 mg/L | APB (cells/mL and log reduction) ([2]; 29 mg/L plus 5 mg/L floc aid): 5 log (no grow | APB (cells/mL and log reduction) [2, 5]: 5 log (no grow | APB (cells/mL and log reduction) ([2]; 52 mg/L): 5 log (no grow | pH (pH of treated water; early flowback water, Example 19, 1.7 mmol/L oxidant, contact time 3 minutes): 6.83 | pH (pH of treated water; early flowback water, Example 19, 1.7 mmol/L oxidant, contact time 13 minutes): 6.87 | pH (pH of treated water; early flowback water, Example 19, 1.7 mmol/L oxidant, contact time 35 minutes): 6.88 | pH (pH of treated water; early flowback water, Example 19, 1.7 mmol/L oxidant, contact time 90 minutes): 6.89 | pH (pH of treated water; produced water (Denver-Julesburg), Example 17, 29 mg/L): 6.2 | pH (pH of treated water; produced water, Example 17, 29 mg/L plus 5 mg/L floc aid (Polymer B-40)): 6.3 | pH (pH of treated water; [6]): 5.9 | pH (pH of treated water; [7]): 6.2 | Magnesium (mg/L as CaCO3) ([3]; 29 mg/L plus 5 mg/L floc aid): 200 mg/L as CaCO3 | Calcium (mg/L as CaCO3) ([3]; 29 mg/L plus 5 mg/L floc aid): 940 mg/L as CaCO3 | Hardness (mg/L as CaCO3) ([3]; 29 mg/L plus 5 mg/L floc aid): 1140 mg/L as CaCO3 | Magnesium (mg/L as CaCO3) ([3]; 52 mg/L): 200 mg/L as CaCO3 | Calcium (mg/L as CaCO3) ([3]; 52 mg/L): 1020 mg/L as CaCO3 | Hardness (mg/L as CaCO3) ([3]; 52 mg/L): 1220 mg/L as CaCO3 | rate of reduction of ATP concentration (bacteria; early flowback water, Example 19, 1.7 mmol/L, ATP at 10, 30 and 60 minutes contact time): The sodium peracetate oxidant treated flowback water had a slightly greater rate of reduction of ATP concentration than chlorine dioxide. | ATP reduction at 30 min CT (bacteria; produced water, Example 17, 29 mg/L): 99.0% | ATP reduction at 30 min CT (bacteria; produced water, Example 17, 29 mg/L plus 5 mg/L floc aid): 99.6% | ATP reduction at 30 min CT (bacteria; produced water, Example 17, 29 mg/L plus 5 mg/L floc aid, listed as Sodium Peracetate Oxidant): 99.6% | ATP (pg/mL), at 30 min CT (bacteria; produced water, Example 17, 29 mg/L plus 5 mg/L floc aid, untreated 135): 0.6 pg/mL | ATP reduction at 30 min CT (bacteria; produced water, Example 17, 29 mg/L, listed as Sodium Peracetate Oxidant): 99.0% | ATP (pg/mL), at 30 min CT (bacteria; produced water, Example 17, 29 mg/L, untreated 135): 1.4 pg/mL | ATP reduction at 30 min CT (bacteria; [6]): 99.3% | ATP reduction at 30 min CT (bacteria; produced water, Example 17, 52 mg/L, listed as Sodium Peracetate Oxidant): 99.3% | ATP (pg/mL), at 30 min CT (bacteria; produced water, Example 17, 52 mg/L, untreated 135): 0.9 pg/mL | ATP (pg/mL), at 30 min CT (bacteria; [7]): 1.4 pg/mL | ATP reduction at 30 min CT (bacteria; [7]): 99.0% | ATP (pg/mL), at 15 min CT (bacteria; produced water, Example 18, 0.30 mmol/L oxidant, untreated 135): 4.1 pg/mL | SRB (cells/mL and log reduction) ([4]; 29 mg/L plus 5 mg/L floc aid): 5 log (no grow | SRB (cells/mL and log reduction) [4, 5]: 5 log (no grow | SRB (cells/mL and log reduction) ([4]; 52 mg/L): 5 log (no grow
